# From the supplement of paper PMC6045584
# ± gives the standard deviation of the averaged measurements.
# Compound: Cc1ccc(-c2cc(C(F)(F)F)nn2-c2ccc(S(N)(=O)=O)cc2)cc1 [CELECOXIB]
# Assay: surviving fraction relative to DMSO-only wells; higher = less growth inhibition
# Conditions: 50 nM; exposure time: 5 days
# Procedure, shortened: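 For each tumour cell line, log-phase cells were put into 384-well plates at 250–500 cells per well, then after 24 hours exposed continuously for five days to inhibitors at 0.5, 1, 5, 10, 50, 100, 500 and 1000 nM. Viability was assessed by CellTiter-Glo luminescence, with surviving fraction expressed relative to the median of DMSO-only wells. Lines were screened three times and retained only if replicate Pearson r exceeded 0.7 and median Z' exceeded 0.3.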
row,Test System,surviving fraction
1,CADOES1 SOFT TISSUE,0.973 ± 0.043
2,SAOS2 BONE,1.22 ± 0.07
3,MDAMB436 BREAST,1.03 ± 0.11
4,93VU HEADNECK,1.03 ± 0.083
5,KPD BONE,1.05 ± 0.04
6,SYO1 SYNOVIAL,0.974 ± 0.022
7,BT20 BREAST,1.11 ± 0.072
8,SUM44 BREAST,1.36 ± 0.47
9,CAL120 BREAST,1 ± 0.04
10,CHLA90 AUTONOMIC GANGLIA,1.03 ± 0.088
11,HCC1806 BREAST,1.11 ± 0.039
12,HCC78 LUNG,0.886 ± 0.14
13,MFM223 BREAST,1.1 ± 0.034
14,SG43 HEADNECK,0.938 ± 0.21
15,HOS BONE,1.06 ± 0.028
16,MDAMB468 BREAST,1.2 ± 0.12

row,Test System,surviving fraction
1,SG27 HEADNECK,1.3 ± 0.084
2,ZR751 BREAST,1.09 ± 0.084
3,HSSYII SYNOVIAL,1.02 ± 0.046
4,MG63 BONE,1.09 ± 0.039
5,HS57T BREAST,1.04 ± 0.06
6,SUM159 BREAST,1.08 ± 0.014
7,HCC1395 BREAST,1.27 ± 0.038
8,SUM149.B1*.S BREAST,1.14 ± 0.055
9,MDAMB453 BREAST,1.14 ± 0.021
10,SCC90 HEADNECK,1.13 ± 0.11
11,HMLE3 BREAST,1.04 ± 0.15
12,HCC70 BREAST,1.06 ± 0.044
13,LNCAP PROSTATE,0.919 ± 0.012
14,HCT15 LARGE INTESTINE,1.07 ± 0.061
15,MHM BONE,1.05 ± 0.041
16,VCAP PROSTATE,1.13 ± 0.018

# Same assay, conditions: 100 nM; exposure time: 5 days
row,Test System,surviving fraction
1,CADOES1 SOFT TISSUE,0.942 ± 0.024
2,SAOS2 BONE,1.23 ± 0.054
3,MDAMB436 BREAST,1.03 ± 0.14
4,93VU HEADNECK,1.08 ± 0.15
5,KPD BONE,1.07 ± 0.12
6,SYO1 SYNOVIAL,0.955 ± 0.043
7,BT20 BREAST,1.22 ± 0.061
8,SUM44 BREAST,1.46 ± 0.53
9,CAL120 BREAST,1.01 ± 0.032
10,CHLA90 AUTONOMIC GANGLIA,1 ± 0.15
11,HCC1806 BREAST,1.25 ± 0.09
12,HCC78 LUNG,1.05 ± 0.082
13,MFM223 BREAST,1.09 ± 0.1
14,SG43 HEADNECK,1.14 ± 0.051
15,HOS BONE,1.08 ± 0.031
16,MDAMB468 BREAST,1.19 ± 0.071

row,Test System,surviving fraction
1,SG27 HEADNECK,1.17 ± 0.23
2,ZR751 BREAST,1.15 ± 0.1
3,HSSYII SYNOVIAL,1.039 ± 0.0068
4,MG63 BONE,1.12 ± 0.042
5,HS57T BREAST,1.09 ± 0.04
6,SUM159 BREAST,1.1 ± 0.024
7,HCC1395 BREAST,1.22 ± 0.041
8,SUM149.B1*.S BREAST,1.16 ± 0.038
9,MDAMB453 BREAST,1.12 ± 0.03
10,SCC90 HEADNECK,1.01 ± 0.077
11,HMLE3 BREAST,1.09 ± 0.076
12,HCC70 BREAST,1.04 ± 0.099
13,LNCAP PROSTATE,0.998 ± 0.083
14,HCT15 LARGE INTESTINE,1.07 ± 0.077
15,MHM BONE,1.05 ± 0.025
16,VCAP PROSTATE,1.12 ± 0.072

# Same assay, conditions: 500 nM; exposure time: 5 days
row,Test System,surviving fraction
1,CADOES1 SOFT TISSUE,0.888 ± 0.045
2,SAOS2 BONE,1.11 ± 0.021
3,MDAMB436 BREAST,0.992 ± 0.076
4,93VU HEADNECK,1.08 ± 0.052
5,KPD BONE,1.05 ± 0.012
6,SYO1 SYNOVIAL,0.975 ± 0.07
7,BT20 BREAST,1.23 ± 0.059
8,SUM44 BREAST,1.35 ± 0.5
9,CAL120 BREAST,0.995 ± 0.085
10,CHLA90 AUTONOMIC GANGLIA,0.999 ± 0.058
11,HCC1806 BREAST,1.09 ± 0.059
12,HCC78 LUNG,0.973 ± 0.09
13,MFM223 BREAST,1.05 ± 0.11
14,SG43 HEADNECK,1.04 ± 0.035
15,HOS BONE,1.06 ± 0.022
16,MDAMB468 BREAST,1.22 ± 0.046

row,Test System,surviving fraction
1,SG27 HEADNECK,1.12 ± 0.15
2,ZR751 BREAST,1.06 ± 0.026
3,HSSYII SYNOVIAL,1.01 ± 0.066
4,MG63 BONE,1.1 ± 0.032
5,HS57T BREAST,1.02 ± 0.055
6,SUM159 BREAST,1.07 ± 0.021
7,HCC1395 BREAST,1.25 ± 0.053
8,SUM149.B1*.S BREAST,1.12 ± 0.067
9,MDAMB453 BREAST,1.04 ± 0.044
10,SCC90 HEADNECK,0.93 ± 0.048
11,HMLE3 BREAST,1.1 ± 0.061
12,HCC70 BREAST,1.2 ± 0.14
13,LNCAP PROSTATE,0.885 ± 0.057
14,HCT15 LARGE INTESTINE,1.09 ± 0.053
15,MHM BONE,1.009 ± 0.009
16,VCAP PROSTATE,1.07 ± 0.029

# Same assay, conditions: 1000 nM; exposure time: 5 days
row,Test System,surviving fraction
1,CADOES1 SOFT TISSUE,0.827 ± 0.097
2,SAOS2 BONE,1.09 ± 0.018
3,MDAMB436 BREAST,0.992 ± 0.11
4,93VU HEADNECK,1.07 ± 0.086
5,KPD BONE,0.934 ± 0.043
6,SYO1 SYNOVIAL,1.04 ± 0.061
7,BT20 BREAST,1.07 ± 0.047
8,SUM44 BREAST,1.37 ± 0.42
9,CAL120 BREAST,1 ± 0.011
10,CHLA90 AUTONOMIC GANGLIA,1.08 ± 0.026
11,HCC1806 BREAST,1.08 ± 0.077
12,HCC78 LUNG,0.801 ± 0.028
13,MFM223 BREAST,1.03 ± 0.017
14,SG43 HEADNECK,1.08 ± 0.08
15,HOS BONE,1.024 ± 0.007
16,MDAMB468 BREAST,1.2 ± 0.098

row,Test System,surviving fraction
1,SG27 HEADNECK,1.21 ± 0.081
2,ZR751 BREAST,1.04 ± 0.19
3,HSSYII SYNOVIAL,1.04 ± 0.036
4,MG63 BONE,1.06 ± 0.044
5,HS57T BREAST,0.867 ± 0.021
6,SUM159 BREAST,1.09 ± 0.017
7,HCC1395 BREAST,1.21 ± 0.037
8,SUM149.B1*.S BREAST,1.2 ± 0.029
9,MDAMB453 BREAST,1.09 ± 0.04
10,SCC90 HEADNECK,1.01 ± 0.15
11,HMLE3 BREAST,1.03 ± 0.17
12,HCC70 BREAST,1.18 ± 0.038
13,LNCAP PROSTATE,0.94 ± 0.065
14,HCT15 LARGE INTESTINE,1.1 ± 0.044
15,MHM BONE,1.02 ± 0.028
16,VCAP PROSTATE,1.05 ± 0.11
